Measured values: US20150141381A1, “TETRACYCLINE COMPOUNDS HAVING TARGET THERAPEUTIC ACTIVITIES” (Paratek Pharmaceuticals, Inc., priority 2001, published 2015)
Read-outs that look alike come from different tables or passages of the source.

Experiments:
S. aureus RN450 = experiment: In Vitro Anti-Bacterial Activity Assay (MIC), gram positive; assay type: cell-based; conditions: Staphylococcus aureus, RN450, 18 h
E. coli mL308 225 = experiment: In Vitro Anti-Bacterial Activity Assay (MIC), gram negative; assay type: cell-based; conditions: Escherichia coli, ML308225, 18 h
[1] = MIC class, Table 3, read-out: Antibiotic Activity Gram +
[2] = MIC class, Table 3, read-out: Antibiotic Activity Gram −
[3] = gram positive bacteria, read-out: Antibiotic Activity Gram + (MIC)
[4] = gram negative bacteria, read-out: Antibiotic Activity Gram − (MIC)
[5] = read-out: Antibiotic Activity Gram − (MIC)
[6] = read-out: Antibiotic Activity Gram +
[7] = read-out: Antibiotic Activity Gram −

Row | SMILES | MIC (S. aureus RN450; [1]) | MIC (E. coli mL308 225; [2]) | MIC (S. aureus RN450; [3]) | MIC (E. coli mL308 225; [4]) | also measured
1 | CN(C)[C@@H]1C(O)=C(C(N)=O)C(=O)[C@@]2(O)C(O)=C3C(=O)c4c(O)ccc(-c5cncnc5)c4C[C@H]3C[C@@H]12 [NL] | < 4 mg/L | < 4 mg/L |  |  | 
2 | CN(C)[C@@H]1C(O)=C(C(N)=O)C(=O)[C@@]2(O)C(O)=C3C(=O)c4c(O)ccc(-c5ccc(NC(=O)C6CCCN6C(=O)C(F)(F)F)cc5)c4C[C@H]3C[C@@H]12 (stereo partly drawn) [OH] | < 4 mg/L | > 4 mg/L |  |  | 
3 | C=C(Cl)c1cc(C(C)(C)C)c(O)c2c1C[C@H]1C[C@H]3[C@H](N(C)C)C(O)=C(C(N)=O)C(=O)[C@@]3(O)C(O)=C1C2=O |  |  | < 4 mg/L | < 4 mg/L | 
4 | CN1CCC(Nc2ccc(O)c3c2C[C@H]2C[C@H]4[C@H](N(C)C)C(O)=C(C(N)=O)C(=O)[C@@]4(O)C(O)=C2C3=O)CC1 |  |  | < 4 mg/L | > 4 mg/L | 
5 | CCc1cc(C(C)=O)c(O)c2c1C[C@H]1C[C@H]3[C@H](N(C)C)C(O)=C(C(N)=O)C(=O)[C@@]3(O)C(O)=C1C2=O [IY] | < 4 mg/L | > 4 mg/L |  |  | 
6 | COc1ccc(-c2cc(CNC(C)CF)c(O)c3c2C[C@H]2C[C@H]4[C@H](N(C)C)C(O)=C(C(N)=O)C(=O)[C@@]4(O)C(O)=C2C3=O)cc1 (stereo partly drawn) |  |  | < 4 mg/L |  | MIC (E. coli mL308 225; [5]): > 4 mg/L
7 | CN(C)c1cc(NCC2CCCCC2)c(O)c2c1C[C@H]1C[C@H]3[C@H](N(C)C)C(O)=C(C(N)=O)C(=O)[C@@]3(O)C(O)=C1C2=O |  |  | > 4 mg/L | > 4 mg/L | 
8 | CN(C)c1cc(CNc2ccccc2)c(O)c2c1C[C@H]1C[C@H]3[C@H](N(C)C)C(O)=C(C(N)=O)C(=O)[C@@]3(O)C(O)=C1C2=O |  |  | < 4 mg/L | > 4 mg/L | 
9 | CN(C)[C@@H]1C(O)=C(C(N)=O)C(=O)[C@@]2(O)C(O)=C3C(=O)c4c(O)ccc(C#CCCCC#N)c4C[C@H]3C[C@@H]12 [BB] | < 4 mg/L | < 4 mg/L |  |  | 
10 | CN(C)c1cc(CNCc2cccn2C)c(O)c2c1C[C@H]1C[C@H]3[C@H](N(C)C)C(O)=C(C(N)=O)C(=O)[C@@]3(O)C(O)=C1C2=O |  |  | < 4 mg/L | > 4 mg/L | 
11 | CN(C)Cc1cc(-c2ccoc2)c2c(c1O)C(=O)C1=C(O)[C@]3(O)C(=O)C(C(N)=O)=C(O)[C@@H](N(C)C)[C@@H]3C[C@@H]1C2 |  |  | < 4 mg/L | > 4 mg/L | 
12 | C[C@H]1c2ccc(CN3CCCCC3)c(O)c2C(=O)C2=C(O)[C@]3(O)C(=O)C(C(N)=O)=C(O)[C@@H](N(C)C)[C@@H]3[C@@H](O)[C@@H]21 |  |  | < 4 mg/L | < 4 mg/L | 
13 | CN(C)c1cc(C#Cc2ccc(N)cc2)c(O)c2c1C[C@H]1C[C@H]3[C@H](N(C)C)C(O)=C(C(N)=O)C(=O)[C@@]3(O)C(O)=C1C2=O [CX] | > 4 mg/L | > 4 mg/L |  |  | 
14 | CCc1cc(CN)c(O)c2c1C[C@H]1C[C@H]3[C@H](N(C)C)C(O)=C(C(N)=O)C(=O)[C@@]3(O)C(O)=C1C2=O [CT] | > 4 mg/L | < 4 mg/L |  |  | 
15 | CN1CCC(NCc2ccc(O)c3c2C[C@H]2C[C@H]4[C@H](N(C)C)C(O)=C(C(N)=O)C(=O)[C@@]4(O)C(O)=C2C3=O)CC1 [KY] | > 4 mg/L | > 4 mg/L |  |  | 
16 | COC(=O)C(CC(C)C)NCc1ccc(OC)c(-c2ccc(O)c3c2C[C@H]2C[C@H]4[C@H](N(C)C)C(O)=C(C(N)=O)C(=O)[C@@]4(O)C(O)=C2C3=O)c1 (stereo partly drawn) [FY] | < 4 mg/L | > 4 mg/L |  |  | 
17 | CCc1cc(CNC(=O)c2cccnc2)c(O)c2c1C[C@H]1C[C@H]3[C@H](N(C)C)C(O)=C(C(N)=O)C(=O)[C@@]3(O)C(O)=C1C2=O [CS] | > 4 mg/L | > 4 mg/L |  |  | 
18 | CN(C)[C@@H]1C(O)=C(C(N)=O)C(=O)[C@@]2(O)C(O)=C3C(=O)c4c(O)c(NC(=O)OCC(C)(C)C)cc(CN)c4C[C@H]3C[C@@H]12 [HP] | > 4 mg/L | > 4 mg/L |  |  | 
19 | CN(C)c1cc(CCc2ccc(F)cc2)c(O)c2c1C[C@H]1C[C@H]3[C@H](N(C)C)C(O)=C(C(N)=O)C(=O)[C@@]3(O)C(O)=C1C2=O |  |  | < 4 mg/L | < 4 mg/L | 
20 | CC(=O)NCc1cc(N(C)C)c2c(c1O)C(=O)C1=C(O)[C@]3(O)C(=O)C(C(N)=O)=C(O)[C@@H](N(C)C)[C@@H]3C[C@@H]1C2 |  |  | < 4 mg/L | > 4 mg/L | 
21 | CN(C)c1cc(CN2CCC(=O)CC2)c(O)c2c1C[C@H]1C[C@H]3[C@H](N(C)C)C(O)=C(C(N)=O)C(=O)[C@@]3(O)C(O)=C1C2=O |  |  | < 4 mg/L | > 4 mg/L | 
22 | CN(C)c1cc(NC(=O)Nc2ccc(F)c([N+](=O)[O-])c2)c(O)c2c1C[C@H]1C[C@H]3[C@H](N(C)C)C(O)=C(C(N)=O)C(=O)[C@@]3(O)C(O)=C1C2=O [DB] | < 4 mg/L | > 4 mg/L |  |  | 
23 | COC1C(C(N)=O)=C(O)[C@@H](N(C)C)[C@@H]2[C@@H](O)[C@H]3C(=C(O)[C@]12O)C(=O)c1c(O)cccc1[C@@H]3C (stereo partly drawn) |  |  | > 4 mg/L | > 4 mg/L | 

Row | SMILES | MIC (S. aureus RN450; [1]) | MIC (E. coli mL308 225; [2]) | MIC (S. aureus RN450; [3]) | MIC (E. coli mL308 225; [4]) | also measured
24 | CN(C)c1cc(CN2CCC3(CC2)OCCO3)c(O)c2c1C[C@H]1C[C@H]3[C@H](N(C)C)C(O)=C(C(N)=O)C(=O)[C@@]3(O)C(O)=C1C2=O |  |  | < 4 mg/L | < 4 mg/L | 
25 | CC(C)CNC(=N)Nc1cc(N(C)C)c2c(c1O)C(=O)C1=C(O)[C@]3(O)C(=O)C(C(N)=O)=C(O)[C@@H](N(C)C)[C@@H]3C[C@@H]1C2 [FB] | > 4 mg/L | > 4 mg/L |  |  | 
26 | CNCOc1ccc(-c2ccc(O)c3c2C[C@H]2C[C@H]4[C@H](N(C)C)C(O)=C(C(N)=O)C(=O)[C@@]4(O)C(O)=C2C3=O)cc1 |  |  | < 4 mg/L | < 4 mg/L | 
27 | CN(C)c1cc(NC(=O)Oc2ccccc2)c(O)c2c1C[C@H]1C[C@H]3[C@H](N(C)C)C(O)=C(C(N)=O)C(=O)[C@@]3(O)C(O)=C1C2=O [drawing 3360] |  |  |  |  | MIC (S. aureus RN450; read-out: Antibiotic Activity Gram + (MIC)): > 4 mg/L; MIC (E. coli mL308 225; [5]): > 4 mg/L
28 | COc1ccc(OC(=O)Nc2ccc3c(c2O)C(=O)C2=C(O)[C@]4(O)C(=O)C(C(N)=O)=C(O)[C@@H](N(C)C)[C@@H]4C[C@@H]2C3)cc1 [AS] |  |  |  |  | MIC (S. aureus RN450; [6]): < 4 mg/L; MIC (E. coli mL308 225; [7]): > 4 mg/L
29 | CN(C)c1ccc(O)c2c1C[C@H]1C[C@H]3[C@H](N(C)C)C(O)=C(C(N)=O)C(=O)[C@@]3(O)C(O)=C1C2=O [B] | < 4 mg/L | < 4 mg/L |  |  | 
30 | CN(C)[C@@H]1C(O)=C(C(N)=O)C(=O)[C@@]2(O)C(O)=C3C(=O)c4c(ccc(N5CCOCC5)c4O)C[C@H]3C[C@@H]12 |  |  | > 4 mg/L | > 4 mg/L | 
31 | Cc1noc(C)c1-c1ccc(O)c2c1C[C@H]1C[C@H]3[C@H](N(C)C)C(O)=C(C(N)=O)C(=O)[C@@]3(O)C(O)=C1C2=O |  |  | < 4 mg/L | < 4 mg/L | 
32 | CN(C)[C@@H]1C(O)=C(C(N)=O)C(=O)[C@@]2(O)C(O)=C3C(=O)c4c(O)ccc(C(=O)Cc5ccccn5)c4C[C@H]3C[C@@H]12 [EL] | < 4 mg/L | < 4 mg/L |  |  | 
33 | CCN(Cc1ccccc1)Cc1cc(N(C)C)c2c(c1O)C(=O)C1=C(O)[C@]3(O)C(=O)C(C(N)=O)=C(O)[C@@H](N(C)C)[C@@H]3C[C@@H]1C2 |  |  | < 4 mg/L | < 4 mg/L | 
34 | CN(C)[C@@H]1C(O)=C(C(N)=O)C(=O)[C@@]2(O)C(O)=C3C(=O)c4c(O)ccc(-c5ccc(CNC#N)cc5)c4C[C@H]3C[C@@H]12 |  |  | < 4 mg/L | < 4 mg/L | 
35 | CCOP(=O)(OCC)C(Nc1ccccc1)c1ccc(-c2cc(N(C)C)c3c(c2O)C(=O)C2=C(O)[C@]4(O)C(=O)C(C(N)=O)=C(O)C(N(C)C)[C@@H]4C[C@@H]2C3)cc1 (stereo partly drawn) [DS] |  |  |  |  | MIC (S. aureus RN450; [6]): < 4 mg/L; MIC (E. coli mL308 225; [7]): > 4 mg/L
36 | CCOC(=O)CNC(=O)c1cccc(-c2ccc(O)c3c2C[C@H]2C[C@H]4[C@H](N(C)C)C(O)=C(C(N)=O)C(=O)[C@@]4(O)C(O)=C2C3=O)c1 [GS] | < 4 mg/L | > 4 mg/L |  |  | 
37 | CN(C)[C@@H]1C(O)=C(C(N)=O)C(=O)[C@@]2(O)C(O)=C3C(=O)c4c(O)ccc(-c5ccc6c(c5)OCO6)c4C[C@H]3C[C@@H]12 [drawing 3479] |  |  | < 4 mg/L | < 4 mg/L | 
38 | CN(C)[C@@H]1C(O)=C(C(N)=O)C(=O)[C@@]2(O)C(O)=C3C(=O)c4c(O)ccc(CN5CCCC5)c4C[C@H]3C[C@@H]12 |  |  | < 4 mg/L | < 4 mg/L | 
39 | CC(C)NCc1ccc(-c2ccc(O)c3c2C[C@H]2C[C@H]4[C@H](N(C)C)C(O)=C(C(N)=O)C(=O)[C@@]4(O)C(O)=C2C3=O)c2ccccc12 [GB] | < 4 mg/L | < 4 mg/L |  |  | 
40 | CN(C)[C@@H]1C(O)=C(C(N)=O)C(=O)[C@@]2(O)C(O)=C3C(=O)c4c(O)c(CN)cc(Cl)c4C=C3C[C@@H]12 |  |  | > 4 mg/L | > 4 mg/L | 
41 | COc1ncc(-c2ccc(O)c3c2C[C@H]2C[C@H]4[C@H](N(C)C)C(O)=C(C(N)=O)C(=O)[C@@]4(O)C(O)=C2C3=O)c(OC)n1 [GF] | < 4 mg/L | < 4 mg/L |  |  | 
42 | CCc1cc(-c2ccc(N(C)C)cc2)c2c(c1O)C(=O)C1=C(O)[C@]3(O)C(=O)C(C(N)=O)=C(O)[C@@H](N(C)C)[C@@H]3C[C@@H]1C2 |  |  | < 4 mg/L | < 4 mg/L | 
43 | CN(C)c1cc(C#Cc2ccccn2)c(O)c2c1C[C@H]1C[C@H]3[C@H](N(C)C)C(O)=C(C(N)=O)C(=O)[C@@]3(O)C(O)=C1C2=O [BA] | > 4 mg/L | > 4 mg/L |  |  | 
44 | CN(C)[C@@H]1C(O)=C(C(N)=O)C(=O)[C@@]2(O)C(O)=C3C(=O)c4c(O)ccc(C#CCc5ccccc5)c4C[C@H]3C[C@@H]12 |  |  |  |  | MIC (S. aureus RN450; MIC class, Table 3 (Continued), read-out: Gram+ activity): < 4 mg/L; MIC (E. coli mL308 225; MIC class, Table 3 (Continued), read-out: Gram− activity): < 4 mg/L
45 | CN(C)c1cc(C#CCNS(C)(=O)=O)c(O)c2c1C[C@H]1C[C@H]3[C@H](N(C)C)C(O)=C(C(N)=O)C(=O)[C@@]3(O)C(O)=C1C2=O |  |  | > 4 mg/L | > 4 mg/L | 
